Assay results: patent US20250084036A1, “COMPOUND, ALDEHYDE DEHYDROGENASE 2 ACTIVATOR, PHARMACEUTICAL COMPOSITION, AND THERAPEUTIC AND/OR PROPHYLACTIC DRUG” (Alchemedicine, Inc., priority 2022, published 2025)

Key:
[1] = Test Example 3: Metabolic stability with human hepatic microsomes; type: in vitro ADME; conditions: human hepatic microsomes 0.1 mg protein/mL, 0.1 μmol/L test compound, after 30 minutes, 37° C.
Experimental: For the compounds of Examples 1 to 9, which had been confirmed to have stability in the mouse hepatic microsome test, metabolic stability with human hepatic microsomes was measured. The specific method is as follows. • (1) Fifty microliter-portions were taken from 0.2 μmol/L test compound diluted with β-NADPH solution. • (2) Fifty microliters of 0.2 mg protein/mL human hepatic microsome solution was added to each (except for a sample with a reaction time of 0 minutes). • (3) Incubation was performed with shaking at 37° C. for 30 minutes (concentration in reaction sample: 0.1 μmol/L test compound, 0.1 mg protein/mL human hepatic microsome) • (4) After incubation, 400 μL of methanol was added to terminate the reaction. • (5) To the sample with a reaction time of 0 minutes, 50 μL of 0.2 mg protein/mL hepatic microsome solution was added. • (6) Each of the samples from (4) and (5) was left to stand at −20° C. for 30 minutes or longer, and then centrifuged at 4° C. and 3,000 rpm for approximately 10 minutes. • (7) The supernatant was subjected to measurement with LC/MS/MS, and, on the basis of the peak area obtained for the unchanged form, the residual rate (%) of the unchanged form was calculated as that for the case with an incubation time of 0 minutes was assumed as 100%.

[2] = Test Example 2: Metabolic stability with mouse hepatic microsomes; type: in vitro ADME; conditions: after 30 minutes, 37° C., NADPH; also: tested at 0.99 µM
Experimental: Metabolic stability in mouse hepatic microsomes was evaluated with the following method.
• (1) Mouse hepatic microsomes: 20 mg/mL • (2) Test compound: 1.1 mM DMSO solution • (3) Potassium phosphate buffer solution: 66.7 mM (pH 7.4) • (4) NADPH solution: 10 mM in potassium phosphate buffer solution • (5) Quenching solution: 0.5% formic acid-acetonitrile solution with warfarin as internal standard substance
Into a propylene tube, 971.5 μL of the potassium phosphate buffer solution and 27.5 μL of the mouse hepatic microsomes were put, and suspended. Thereto, 1 μL of a test compound was added, and 180 μL was taken from this mixture and transferred into another tube. The mixture was preincubated at 37° C. for 5 minutes, and 20 μL of the NADPH solution (for the case with an incubation time of 30 minutes) or 20 μL of the potassium phosphate buffer solution (for the case with an incubation time of 0 minutes) was then added thereto. After incubation, 200 μL of the quenching solution was added to terminate the reaction. Subsequently, centrifugation was performed at 3220×g for 20 minutes, and the concentration of the unchanged form of the test compound in 200 μL of the supernatant was measured with LC-MS/MS. On the basis of the peak area obtained for the unchanged form, the residual rate (%) of the unchanged form was calculated as that for the case with an incubation time of 0 minutes was assumed as 100%.

[3] = target: T1, human recombinant ALDH2 enzyme (Homo sapiens, UniProt P05091); experiment: Test Example 1-2: ALDH2 activation effect (acetaldehyde oxidation rate, PicoProbe kit); type: biochemical; conditions: ALDH2 1 μg/mL, 60 min measurement
T1 construct: purchased Abcam ab87415
T1 sequence (P05091 18-517): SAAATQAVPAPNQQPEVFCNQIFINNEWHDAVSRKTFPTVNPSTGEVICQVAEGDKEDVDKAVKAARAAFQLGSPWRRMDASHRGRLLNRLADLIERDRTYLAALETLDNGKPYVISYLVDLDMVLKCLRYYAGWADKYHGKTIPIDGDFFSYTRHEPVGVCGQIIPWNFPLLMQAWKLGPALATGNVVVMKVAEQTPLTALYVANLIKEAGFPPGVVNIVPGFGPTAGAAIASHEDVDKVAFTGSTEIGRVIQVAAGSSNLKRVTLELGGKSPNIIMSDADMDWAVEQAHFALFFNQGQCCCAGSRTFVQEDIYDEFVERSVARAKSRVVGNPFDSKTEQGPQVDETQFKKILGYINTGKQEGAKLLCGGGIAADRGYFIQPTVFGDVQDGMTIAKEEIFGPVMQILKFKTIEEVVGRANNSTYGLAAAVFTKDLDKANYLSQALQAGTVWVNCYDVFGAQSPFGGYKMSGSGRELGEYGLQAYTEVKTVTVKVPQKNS
Experimental: (§1) The activation effect of each test compound on the acetaldehyde oxidation rate of ALDH2 was measured with the following method. A test was conducted by using a commercially available PicoProbe™ Aldehyde dehydrogenase Activity Assay Kit (manufactured by Abcam) with reference to an instruction attached to the product under the following conditions. To each well of a 384-well plate, the following (1) to (3) were sequentially added with a pipette: • (1) 10 μL of solution obtained by dissolving and diluting a human recombinant ALDH2 enzyme (manufactured by Abcam, product number: ab87415) with ALDH assay Buffer (final concentration: 1 μg/mL); • (2) 10 μL of 30 μM or 90 μM test compound solution (with 3% DMSO) prepared by using ALDH assay Buffer; and • (3) 10 μL of Reaction mix composed with ratio of 7.3 μL of ALDH assay Buffer, 0.6 μL of PicoProbe, 0.6 μL of Substrate Mix, and 1.5 μL of Acetaldehyde.
(§2) Before addition of (3), incubation was performed at room temperature for 5 minutes. After addition of (3), fluorescence intensity was measured at room temperature every 2.5 minutes over a period of 60 minutes by using an EnVision (manufactured by PerkinElmer Inc.) to determine the oxidation rate. Wavelengths of 535 nm and 587 nm were used for fluorescence intensities of excitation and emission, respectively.

[4] = target: T1, human recombinant ALDH2 enzyme; experiment: Test Example 1-1: ALDH2 activation effect (acetaldehyde oxidation rate, PicoProbe kit); type: biochemical; conditions: ALDH2 2 μg/mL, 180 min measurement
Experimental: as §1, with “by BioVision Inc.)” for “by Abcam)”, “concentration: 2” for “concentration: 1”, “of […]” for “of 7.3”, “PicoProbe, 0.3” for “PicoProbe, 0.6”
as §2, with “180” for “60”, “EnSight” for “EnVision”

With `CCOc1ncc(CNC(=O)c2cc(-c3ncccc3CO)ccc2F)cc1F` [Example 7, N-((6-Ethoxy-5-fluoropyridin-3-yl)methyl)-2-fluoro-5-(3-(hydroxymethyl)pyridin-2-yl)benzamide] the “Residual rate (%) of unchanged form” value [1] was 89%, the “Residual rate (%) of unchanged form” value [2] was 96% and the “acetaldehyde oxidation rate (no test compound = 100%)” value ([3]; test compound 10 μM) was 331%. For the same compound, the “acetaldehyde oxidation rate (no test compound = 100%)” value ([3]; test compound 30 μM) was 415%.

For `COCc1ccc(CNC(=O)c2c(F)cccc2Cl)cc1F` [Comparative Example 5, reference compound], the “Residual rate (%) of unchanged form” value [2] was <1%.

For `COCc1ccc(CNC(=O)c2c(Cl)cccc2Br)cc1F` [Comparative Example 4, reference compound], the “Residual rate (%) of unchanged form” value [2] was <1%.

With `COCc1ccc(CNC(=O)c2c(Cl)cccc2Cl)cc1F` [Comparative Example 3, reference compound] the “Residual rate (%) of unchanged form” value [2] was 1%.

In the case of `O=C(NCc1ccc2c(c1)OCO2)c1c(Cl)cccc1Cl` [Comparative Example 1, reference compound], the “acetaldehyde oxidation rate (no test compound = 100%)” value ([4]; test compound 10 μM) is reported as 199%, the “acetaldehyde oxidation rate (no test compound = 100%)” value ([4]; test compound 30 μM) is reported as 225% and the “Residual rate (%) of unchanged form” value [2] is reported as <1%. For the same compound, the “acetaldehyde oxidation rate (no test compound = 100%)” value ([3]; test compound 10 μM) was 220% and the “acetaldehyde oxidation rate (no test compound = 100%)” value ([3]; test compound 30 μM) was 275%.

With `COc1ccc(CNC(=O)c2cc(-c3ncccc3CO)ccc2OCC2CC2)cc1F` [Comparative Example 2, reference compound] the “Residual rate (%) of unchanged form” value [2] was 6%.

With `O=C(NCc1cnc(OC2CC2)c(F)c1)c1cc(-c2ncccc2CO)ccc1F` [Example 9, N-((6-Cyclopropoxy-5-fluoropyridin-3-yl)methyl)-2-fluoro-5-(3-(hydroxymethyl)pyridin-2-yl)benzamide] the “Residual rate (%) of unchanged form” value [1] was 93%, the “Residual rate (%) of unchanged form” value [2] was 92% and the “acetaldehyde oxidation rate (no test compound = 100%)” value ([3]; test compound 10 μM) was 182%. For the same compound, the “acetaldehyde oxidation rate (no test compound = 100%)” value ([3]; test compound 30 μM) was 283%.

In the case of `COc1ncc(CNC(=O)c2cc(-c3ncccc3[C@@H](C)O)ccc2F)cc1F` (single isomer, unassigned) [Example 4, 2-fluoro-N-((5-fluoro-6-methoxypyridin-3-yl)methyl)-5-(3-(1-hydroxyethyl)pyridin-2-yl)benzamide], the “Residual rate (%) of unchanged form” value [1] is reported as >99%, the “Residual rate (%) of unchanged form” value [2] is reported as 93% and the “acetaldehyde oxidation rate (no test compound = 100%)” value ([3]; test compound 10 μM) is reported as 133%. For the same compound, the “acetaldehyde oxidation rate (no test compound = 100%)” value ([3]; test compound 30 μM) was 155%.

With `CC(C)Oc1ncc(CNC(=O)c2cc(-c3ncccc3CO)ccc2F)cc1F` [Example 8, 2-Fluoro-N-((5-fluoro-6-isopropoxypyridin-3-yl)methyl)-5-(3-(hydroxymethyl)pyridin-2-yl)benzamide] the “Residual rate (%) of unchanged form” value [1] was >99%, the “Residual rate (%) of unchanged form” value [2] was 90% and the “acetaldehyde oxidation rate (no test compound = 100%)” value ([3]; test compound 10 μM) was 154%. For the same compound, the “acetaldehyde oxidation rate (no test compound = 100%)” value ([3]; test compound 30 μM) was 224%.

With `O=C(NCc1ccc(OC(F)F)nc1)c1cc(-c2ncccc2CO)ccc1F` [Example 6, N-((6-(Difluoromethoxy)pyridin-3-yl)methyl)-2-fluoro-5-(3-(hydroxymethyl)pyridin-2-yl)benzamide] the “Residual rate (%) of unchanged form” value [1] was 47%, the “Residual rate (%) of unchanged form” value [2] was >99% and the “acetaldehyde oxidation rate (no test compound = 100%)” value ([3]; test compound 10 μM) was 125%. For the same compound, the “acetaldehyde oxidation rate (no test compound = 100%)” value ([3]; test compound 30 μM) was 139%.

For `COc1ncc(CNC(=O)c2cc(-c3ncccc3[C@@H](C)O)ccc2F)cc1F` (single isomer, unassigned) [Example 5, 2-fluoro-N-((5-fluoro-6-methoxypyridin-3-yl)methyl)-5-(3-(1-hydroxyethyl)pyridin-2-yl)benzamide], the “Residual rate (%) of unchanged form” value [1] was 92%, the “Residual rate (%) of unchanged form” value [2] was 95% and the “acetaldehyde oxidation rate (no test compound = 100%)” value ([3]; test compound 10 μM) was 122%. The “acetaldehyde oxidation rate (no test compound = 100%)” value ([3]; test compound 30 μM) was 170%.

For `COCc1ccc(CNC(=O)c2cc(-c3ncccc3CO)ccc2F)cn1` [Example 1, 2-Fluoro-5-(3-(hydroxymethyl)pyridin-2-yl)-N-((6-(methoxymethyl)pyridin-3-yl)methyl)benzamide], the “Residual rate (%) of unchanged form” value [1] was 96%, the “acetaldehyde oxidation rate (no test compound = 100%)” value ([4]; test compound 10 μM) was 123% and the “acetaldehyde oxidation rate (no test compound = 100%)” value ([4]; test compound 30 μM) was 130%. For the same compound, the “Residual rate (%) of unchanged form” value [2] was 91%.

With `COCc1ccc(CNC(=O)c2c(F)cccc2F)cc1F` [Comparative Example 6, reference compound] the “Residual rate (%) of unchanged form” value [2] was 1%.

In the case of `COc1ccc(CNC(=O)c2cc(-c3ncccc3CO)ccc2F)cn1` [Example 2, 2-Fluoro-5-(3-(hydroxymethyl)pyridin-2-yl)-N-((6-methoxypyridin-3-yl)methyl)benzamide], the “Residual rate (%) of unchanged form” value [1] is reported as >99%, the “acetaldehyde oxidation rate (no test compound = 100%)” value ([4]; test compound 10 μM) is reported as 150% and the “acetaldehyde oxidation rate (no test compound = 100%)” value ([4]; test compound 30 μM) is reported as 180%. For the same compound, the “Residual rate (%) of unchanged form” value [2] was 89%.
